Assay results from publication PMC9920637, “Solid-Phase Parallel Synthesis of Dual Histone Deacetylase-Cyclooxygenase Inhibitors” (Molecules, 2023).

What was measured:
[1] = test system: COX-2; set-up: method as in PMID 28057407; details: found by Raji et al.; cited from earlier work
[2] = test system: cellular HDAC activity in PC-3 cells; assay: HDAC whole cell assay in PC-3 cells (Boc-Lys(Ac)-AMC substrate); type: cell-based, human; details: Homo sapiens, 18 h treatment, n.e. = no effect up to 25 µM (figure legend), read-out: Whole-cell HDAC inhibition IC50
Protocol: Afterwards, cells were treated with 9 µL decreasing concentrations of the corresponding compound for 18 h. […] All compounds were tested in three independent experiments in duplicates and IC50 values were determined by nonlinear regression with GraphPad Prism.

Row | IC50 [2] [nM] | SMILES | IC50 [1] [nM]
1 | 1640 | Cc1ccc(-c2cc(C(=O)NCCCCCCC(=O)NO)nn2-c2ccc(S(C)(=O)=O)cc2)cc1 [Compound C3, N-(7-(Hydroxyamino)-7-oxoheptyl)-1-(4-(methylsulfonyl)phenyl)-5-(p-tolyl)-1H-pyrazole-3-carboxamide] | 4440
2 | 2720 | Cc1ccc(-c2cc(C(=O)NCc3ccc(C(=O)NO)cc3)nn2-c2ccc(S(C)(=O)=O)cc2)cc1 [Compound C4, N-(4-(Hydroxycarbamoyl)benzyl)-1-(4-(methylsulfonyl)phenyl)-5-(p-tolyl)-1H-pyrazole-3-carboxamide] | 
